The values that follow are results of earlier work, collected in patent US10098891B2, “Highly concentrated stable meloxicam solutions for needleless injection” (BOEHRINGER INGELHEIM VETMEDICA GMBH, priority 2001, dated 2018).

For the series the following is noted: aqueous solution.

`Cc1cnc(NC(=O)C2=C(O)c3ccccc3S(=O)(=O)N2C)s1` [meloxicam, 4-hydroxy-2-methyl-N-(5-methyl-2-thiazolyl)-2H-1,2-benzothiazine-3-carboxamide-1,1-dioxide]: the solubility in water entry is given as “does not dissolve readily in water”.
